From patent publication US11391739B2, “Compositions and methods for treating multiple myeloma” (DANA-FARBER CANCER INSTITUTE, INC., priority 2014, dated 2022)

Legend:
Format in all cases: cell-based, human
MM1S-luc cells = assay: Transwell migration assay of MM1S-luc cells
Experimental: For cell migration assays, the top chamber of transwell plates ([…], Corning Costar) was seeded with 2×10^5 MM1S-luc cells, and the bottom chamber was seeded with either medium (0.1% FBS) alone, BMEC-60 cells, BMEC-60 cell-conditioned medium, or plain medium containing CyPA and/or CD147. After 12 hrs of incubation, MM1S-luc cells that had migrated to the bottom chamber were collected and quantified by Xenogen Imaging. Migration of RPMI, U266, CLL, LPL, or primary tumor cells was evaluated by counting the number of unlabeled cells in the lower chamber. Each experiment was done in triplicate and repeated twice. Recombinant HPLC-purified eCyPA was purchased from BioMart Inc. and eCyPB (PPIB) human recombinant protein was purchased from Abnova. In most instances, 50 ng/ml of eCyPA or eCyPB diluted in serum-free RPMI medium was used. CM was collected from confluent cultures of BMEC-60 cells incubated for 48 hours. When needed, the CM was treated with 100 μ/ml proteinase K (19133, Qiagen) for 2 hrs and then deactivated for 15 min at 70° C. Anti-CD147 (UM-8D6) antibody and monoclonal mouse IgG1 (MOPC31C) were obtained from Ancell; anti-CXCR4 (MAB171) was from R&D systems. Migration data were normalized using the data obtained with medium alone. Results are means.±SD for triplicate assays.

H929 and MM1S cells [1] = assay: Proliferation of MM cells ([3H]TdR incorporation)
Experimental: Cell proliferation was evaluated by [^3H]TdR incorporation as described in Mani et al., Cancer Res. 69: 7577-7586 (2009). When proliferation of MM cells was determined in the presence of HS5 or BMEC-60 cells, the latter were previously gamma-irradiated (10,000 rads) and dispensed into 96-well plates. Then, MM1S and H929 cells were co-cultured with either BMEC-60 cells, CM alone, CyPA, or CyPB for 72 hrs. Viability of MM1s-Luc cells were co-cultured with BMEC-60 cells and then treated with drugs as described was assessed, using the tumor cell-specific in vitro bioluminescence imaging (SS-BLI).

[2] = tested on: H929, OPM2, RPMI and primary MM cells; assay: Transwell migration assay of other MM cell lines and primary MM cells; settings: 50 ng/ml recombinant protein
Experimental: FIG. 12. (FIG. 12A) CyPA immunostains in two different NBM, kidney, liver, and lymph node biopsies from healthy subjects. (FIG. 12B) Serum levels of eCyPA in 10 BM aspirates from MGUS and MM patients. (FIG. 12C) Transwell migration assay of MM1S-luc cells incubated in the absence of serum (Medium) or BM serum from two different MM patients with low (PT #4) and high (PT #12) levels of eCyPA (same as FIG. 4I). Migration data was normalized based on data of medium alone. (FIG. 12D) Transwell migration assay of H929, OPM2 and RPMI cells incubated with medium alone or in the presence of 50 ng/ml of recombinant eCyPA. (FIG. 12E) Transwell migration assay of two MM primary tumors (MMPT #1 and MMPT #2) incubated with medium alone or 50 ng/ml of recombinant eCyPA or BMEC-60 cells.
(§1) For cell migration assays, the top chamber of transwell plates ([…], Corning Costar) was seeded with 2×10^5 MM1S-luc cells, and the bottom chamber was seeded with either medium (0.1% FBS) alone, BMEC-60 cells, BMEC-60 cell-conditioned medium, or plain medium containing CyPA and/or CD147. After 12 hrs of incubation, MM1S-luc cells that had migrated to the bottom chamber were collected and quantified by Xenogen Imaging. Migration of RPMI, U266, CLL, LPL, or primary tumor cells was evaluated by counting the number of unlabeled cells in the lower chamber. […]

H929 and MM1S cells [3] = assay: Immunoblot analysis of total protein extracts from MM cells
Experimental: Total protein samples were prepared from non-attached H929 and MM1S cells grown in CM from cultures of BMEC-60 or BMEC-1 cells attached for 72 hr. In some experiments, the cells were co-cultured with BMEC-60 cells using transwell chambers (Corning Costar, 0.45 µm pore diameter). Immunoblotting was performed as described in Takada et al., Sci. Transl. Med. 4, 148ra117 (2012). When MM1S and H929 cells were treated with eCyPA or CD147 Ab, they were first incubated with eCyPA or CD147 Ab for 5 hrs in serum-free medium. Then 0.5% serum was added, and incubation was resumed for another 72 hrs before performing protein preparation. Anti-human primary antibodies included: BCL9 (2D4, Abnova), CyPA (ERPR7511, Abcam), CD147 (#13287, Cell Signaling), pSTAT3 (#9131, Cell Signaling), pERK (#4370, Cell Signaling), PARP (#9542, Cell Signaling), pAKT (#9271, Cell Signaling), Active-β-catenin (05-665, Millipore), Factor VIII (A0082, DAKO), MMP-9 (MAB911, R&D), CyPB (MAB5410, R&D), and horseradish peroxidase (HRP)-conjugated actin (C-11, Santa Cruz). Actin Ab was used as a loading control. Secondary antibodies included: anti-rabbit IgG (HRP)-conjugated (W402b, Promega), and anti-mouse IgG (HRP)-conjugated (W401b, Promega). Protein concentrations were measured in triplicate by Bradford assay (BioRad). Optimal antibody concentrations were used according to the manufacturer's recomendations.

CLL and LPL cells = assay: Transwell migration assay of CLL and LPL cells; settings: 50 ng/ml recombinant eCyPA
Description: FIG. 16. (FIG. 16A) Representative immunostains (top, n=10) and flow cytometric (bottom, n=6) analysis of CD147 expression in BM samples from CLL patients. (FIG. 16B) Representative immunostains (top, n=10) and flow cytometric (bottom, n=6) analysis of CD147 expression in BM samples from LPL patients. (FIG. 16C) Flow cytometry of CD147 (red line) and control isotype (black line) expression in one CLL cell line (HG3) and one primary tumor patient cells (CLLPT #1). (FIG. 16D) Flow cytometry of CD147 (red line) and control isotype (black line) expression in one LPL cell line (BCWM.1) and one primary tumor patient cells (LPLPT #1). […] Migration of primary CLL and LPL tumor patient cells was evaluated in four different samples for each tumor type. […] Unlabeled cell lines and primary tumors were used, and migration was evaluated by counting cells in the bottom chamber. […]
as §1, with “Imaging.” for “Imaging. Migration of RPMI, U266, CLL, LPL, or primary tumor cells was evaluated by counting the number of unlabeled cells in the lower chamber.”

Substance	migration of MM1S-luc cells, CyPB compared with CyPA (MM1S-luc cells; 50 ng/ml each)	proliferation of MM cells (H929 and MM1S cells [1]; tested at much higher concentrations than those in BM serum of MM patients)	concentration giving maximal migration response (MM1S-luc cells; MM1S-luc cells)	lowest concentration inducing significant migration (MM1S-luc cells; MM1S-luc cells)	migration of MM cells incubated with BMEC-1 transduced with CyPA-shRNAs (MM1S-luc cells; addition of 50 ng/ml recombinant eCyPA)	migration of MM1S-luc cells (MM1S-luc cells; purified recombinant protein, time- and concentration-dependent)	migration of other MM cell lines (H929, OPM2, RPMI) [2]	migration of primary MM cells [2]	signaling pathways (Wnt/β-catenin, STAT3, AKT, ERK) in MM cells (H929 and MM1S cells [3]; 50 ng/ml eCyPA vs without)	higher-glycosylated form of CD147 in MM cells (H929 and MM1S cells [3]; CyPA-treated)	expression of matrix metalloprotease 9 (MMP-9) (H929 and MM1S cells [3]; cells treated with eCyPA)	CD147 expression in MM cells (H929 and MM1S cells [3]; concentration-dependent and time-dependent)	proliferation of H929 and MM1S cells (H929 and MM1S cells [1]; concentration-dependent)	migration of CLL cells (CLL and LPL cells)	migration of LPL cells (CLL and LPL cells)
CyPB: eCyPB (PPIB) human recombinant protein purchased from Abnova	Major differences were likewise not observed	induces proliferation	–	–	–	–	–	–	–	–	–	–	–	–	–
eCyPA: Recombinant HPLC-purified eCyPA (extracellular cyclophilin A) purchased from BioMart Inc.	–	–	50 ng/mL	6 ng/mL	restored migration	promoted migration	induced migration	induced migration	activation of several signaling pathways	increased	increased	dramatically increased	enhanced	enhanced migration	enhanced migration
